Reference: patent publication EP0062407A1, “Therapeutic compounds containing beta-lactams” (BEECHAM GROUP PLC, priority 1981, dated 1982)
In brackets after ≈: the same amount, converted by molar mass.

Legend:
Staph. aureus Russell = assay: Synergistic activity in vitro with amoxycillin; assay type: cell-based, Staphylococcus aureus; parameters: Synergistic activity in vitro: unit not given beside the values; conditions: for Synergistic activity in vitro: Staph. aureus Russell
E. coli JT 39 = assay: Synergistic activity in vitro with amoxycillin; assay type: cell-based, Escherichia coli; conditions: for Synergistic activity in vitro: E. coli JT 39
Klebsiella aerogenes E70 = assay: Synergistic activity in vitro with amoxycillin; assay type: cell-based; parameters: Synergistic activity in vitro: unit not given beside the values; conditions: for Synergistic activity in vitro: Klebsiella aerogenes E70
K. aerogenes E70 = assay: Antibacterial activity of quaternary amine derivatives alone; assay type: cell-based; conditions: Klebsiella aerogenes, compound alone
E. coli JT39 = assay: as above; assay type: cell-based; conditions: Escherichia coli, compound alone
S. aureus Russell = assay: as above; assay type: cell-based; conditions: Staphylococcus aureus, compound alone
[1] = amoxycillin with inhibitor, Inhibitor Conc 1
[2] = amoxycillin with inhibitor, Inhibitor Conc 5
[3] = amoxycillin alone, no inhibitor

For `CC[N+](C)(C/C=C1\O[C@@H]2CC(=O)N2[C@H]1C(=O)[O-])Cc1ccccc1` (some centres unmarked) [Example No 2, 9-(N-Benzyl-N-ethvl-N-methyl)ammonio-9-deoxyclavulanate], the “Synergistic activity in vitro” value (Staph. aureus Russell; [1]) was 0.16, the “Synergistic activity in vitro” value (E. coli JT 39; [1]) was 16 and the “Synergistic activity in vitro” value (E. coli JT 39; [2]) was 4. For the same compound, the “Synergistic activity in vitro” value (Klebsiella aerogenes E70; [1]) was 12.5 and the “Synergistic activity in vitro” value (Klebsiella aerogenes E70; [2]) was 3.1.

For `CC[N+](CC)(CC)C/C=C1\O[C@@H]2CC(=O)N2[C@H]1C(=O)[O-]` [Example No. 6, 9-N,N,N-triethylammonio-9-deoxyclavulanate], the MIC (K. aerogenes E70) was 500 µg/mL (≈ 1770 µM), the MIC (E. coli JT39) was 125 µg/mL (≈ 443 µM) and the MIC (S. aureus Russell) was 31 µg/mL (≈ 110 µM).

Work on `CC[N+](C)(C)C/C=C1\O[C@@H]2CC(=O)N2[C@H]1C(=O)[O-]` [Example No. 5, 9-(N,N-dimethyl-N-ethyl)ammonio-9-deoxyclavulanate] yielded an MIC (K. aerogenes E70) of 250 µg/mL (≈ 983 µM), an MIC (E. coli JT39) of 62 µg/mL (≈ 244 µM) and an MIC (S. aureus Russell) of 31 µg/mL (≈ 122 µM).

Work on `C[N+](C)(C)C/C=C1\O[C@@H]2CC(=O)N2[C@H]1C(=O)[O-]` [Example No. 7, 9-N,N,N,-trimethylammonio-9-deoxyclavulanate] yielded an MIC (K. aerogenes E70) of 62.5 µg/mL (≈ 260 µM), an MIC (E. coli JT39) of 16 µg/mL (≈ 66.6 µM) and an MIC (S. aureus Russell) of 4 µg/mL (≈ 16.6 µM).

`C[N+](C)(C/C=C1\O[C@@H]2CC(=O)N2[C@H]1C(=O)[O-])Cc1ccccc1` [Example No 1, 9-(N-Benzyl-N,N-dimethyl)ammonio-9-deoxyclavulanate] was tested, and the “Synergistic activity in vitro” value (Staph. aureus Russell; [1]) was 0.62, the “Synergistic activity in vitro” value (Staph. aureus Russell; [2]) was 0.08 and the “Synergistic activity in vitro” value (E. coli JT 39; [1]) was 8. For the same compound, the “Synergistic activity in vitro” value (E. coli JT 39; [2]) was 2, the “Synergistic activity in vitro” value (Klebsiella aerogenes E70; [1]) was 6.2 and the “Synergistic activity in vitro” value (Klebsiella aerogenes E70; [2]) was 3.1.

With `CC1(C)S[C@@H]2[C@H](NC(=O)[C@H](N)c3ccc(O)cc3)C(=O)N2[C@H]1C(=O)O` [Amoxycillin, reference compound] the “MIC µg/ml amoxycillin” value (Staph. aureus Russell; S. aureus Russell, amoxycillin alone) was 500 µg/mL, the “Synergistic activity in vitro” value (Staph. aureus Russell; [3]) was 1000 and the “MIC µg/ml amoxycillin” value (E. coli JT 39; E. coli JT39, amoxycillin alone) was 2000 µg/mL. The “Synergistic activity in vitro” value (E. coli JT 39; [3]) was at least 2000, the “MIC µg/ml amoxycillin” value (Klebsiella aerogenes E70; K. aerogenes E70, amoxycillin alone) was 1000 µg/mL and the “Synergistic activity in vitro” value (Klebsiella aerogenes E70; [3]) was 500.
